Assay results reported in publication PMC6162302, “A modified serine cycle in Escherichia coli coverts methanol and CO2 to two-carbon compounds” (Nature Communications, 2018).

Target: T1, Medh(CT4–1), variant of Mdh2 (Cupriavidus necator, UniProt F8GNE5)
T1 construct: engineered variant CT4-1 of Mdh2, N-terminal His-tag, expressed in E. coli BL21(DE3), His-Spin column purified
T1 sequence (F8GNE5 1-390): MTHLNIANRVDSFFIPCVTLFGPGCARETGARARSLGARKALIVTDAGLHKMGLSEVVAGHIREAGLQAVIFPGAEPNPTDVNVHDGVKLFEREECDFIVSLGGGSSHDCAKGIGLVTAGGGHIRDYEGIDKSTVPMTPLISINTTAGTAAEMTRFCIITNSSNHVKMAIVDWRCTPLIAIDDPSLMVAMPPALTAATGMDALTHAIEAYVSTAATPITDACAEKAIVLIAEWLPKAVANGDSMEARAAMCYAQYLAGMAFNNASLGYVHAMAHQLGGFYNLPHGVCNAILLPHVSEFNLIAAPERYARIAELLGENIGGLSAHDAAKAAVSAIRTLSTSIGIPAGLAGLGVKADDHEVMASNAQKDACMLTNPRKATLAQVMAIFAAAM
Experiment: NADH formation at […] nm
Type: biochemical
Conditions: 500 mM methanol, 5 mM MgCl2, 100 mM NaHCO3 pH 9.5, 37 °C

## NC(=O)c1ccc[n+]([C@@H]2O[C@H](COP(=O)(O)OP(=O)(O)OC[C@H]3O[C@@H](n4cnc5c(N)ncnc54)[C@H](O)[C@@H]3O)[C@@H](O)[C@H]2O)c1 [NAD]
  NADH formation at 340 nm: oxidation of methanol to formaldehyde with the formation of NADH
